Measurements published in ChEMBL document CHEMBL4428052, “Substrate-Guided Design of Selective FXIIa Inhibitors Based on the Plant-Derived Momordica cochinchinensis Trypsin Inhibitor-II (MCoTI-II) Scaffold” (J Med Chem, 2016).
Peptide text beside a SMILES is read from it.

Legend:
Homo sapiens = species: Homo sapiens; assay: Selectivity ratio of Ki for factor 10a (unknown origin) to Ki for factor 12a (unknown origin)
Coagulation factor X = Coagulation factor X (Homo sapiens, UniProt P00742); assay: Inhibition of factor 10a (unknown origin) using Ac-QRSRpNA as substrate incubated for 30 mins measured for 7 mins by morrison plot analysis
Sequence of Coagulation factor X (P00742 41-179 limits assumed): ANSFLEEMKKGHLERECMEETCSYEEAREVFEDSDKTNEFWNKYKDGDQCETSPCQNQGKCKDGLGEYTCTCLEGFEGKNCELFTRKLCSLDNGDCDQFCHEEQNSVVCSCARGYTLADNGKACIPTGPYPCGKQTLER
Sequence of Coagulation factor X (P00742 235-488 limits assumed): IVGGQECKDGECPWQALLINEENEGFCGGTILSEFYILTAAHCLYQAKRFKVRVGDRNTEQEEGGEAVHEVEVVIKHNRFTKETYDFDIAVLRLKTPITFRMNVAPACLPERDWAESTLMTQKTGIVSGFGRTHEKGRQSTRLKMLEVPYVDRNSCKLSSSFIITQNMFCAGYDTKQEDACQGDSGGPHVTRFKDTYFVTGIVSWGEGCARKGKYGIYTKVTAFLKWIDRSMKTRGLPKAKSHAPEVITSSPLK

Coagulation factor XII = target: T1, Coagulation factor XII (Homo sapiens, UniProt P00748); assay: Inhibition of factor 12a (unknown origin) using Ac-QRFRpNA as substrate incubated for 30 mins measured for 7 mins by morrison plot analysis
T1 sequence (P00748 whole entry): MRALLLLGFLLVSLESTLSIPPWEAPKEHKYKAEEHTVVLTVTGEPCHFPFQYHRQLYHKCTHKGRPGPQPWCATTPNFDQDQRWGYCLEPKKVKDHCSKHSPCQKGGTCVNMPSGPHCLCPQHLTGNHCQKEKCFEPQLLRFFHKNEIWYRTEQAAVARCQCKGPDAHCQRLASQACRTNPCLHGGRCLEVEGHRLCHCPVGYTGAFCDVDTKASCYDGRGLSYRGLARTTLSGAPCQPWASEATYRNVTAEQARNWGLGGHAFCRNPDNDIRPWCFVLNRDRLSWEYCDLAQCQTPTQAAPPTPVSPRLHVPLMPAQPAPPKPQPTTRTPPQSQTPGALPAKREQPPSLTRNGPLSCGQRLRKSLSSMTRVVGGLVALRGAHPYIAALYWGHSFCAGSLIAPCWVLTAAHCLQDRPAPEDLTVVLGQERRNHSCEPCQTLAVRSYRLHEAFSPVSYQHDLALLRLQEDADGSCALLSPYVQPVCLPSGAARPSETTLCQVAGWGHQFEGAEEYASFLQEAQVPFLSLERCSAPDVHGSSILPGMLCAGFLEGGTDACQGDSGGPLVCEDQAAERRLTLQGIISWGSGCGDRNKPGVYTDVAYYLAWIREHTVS

Plasminogen = Plasminogen (Homo sapiens, UniProt P00747); assay: Inhibition of plasmin (unknown origin) using Ac-RM(O2)YRpNA as substrate incubated for 30 mins measured for 7 mins by morrison plot analysis
Sequence of Plasminogen (P00747 97-580 limits assumed): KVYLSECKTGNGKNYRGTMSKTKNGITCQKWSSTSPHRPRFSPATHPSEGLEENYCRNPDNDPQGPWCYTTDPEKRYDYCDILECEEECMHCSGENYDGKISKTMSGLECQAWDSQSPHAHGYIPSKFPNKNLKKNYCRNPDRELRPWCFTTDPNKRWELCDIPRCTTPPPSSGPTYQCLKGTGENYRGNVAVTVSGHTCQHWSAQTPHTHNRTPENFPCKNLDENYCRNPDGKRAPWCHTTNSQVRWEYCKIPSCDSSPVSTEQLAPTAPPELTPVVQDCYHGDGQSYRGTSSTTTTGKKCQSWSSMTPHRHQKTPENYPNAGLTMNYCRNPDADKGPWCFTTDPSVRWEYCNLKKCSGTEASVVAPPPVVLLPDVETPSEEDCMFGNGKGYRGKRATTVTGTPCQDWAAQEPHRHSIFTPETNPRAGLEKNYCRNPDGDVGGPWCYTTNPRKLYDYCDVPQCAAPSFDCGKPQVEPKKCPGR
Sequence of Plasminogen (P00747 581-810 limits assumed): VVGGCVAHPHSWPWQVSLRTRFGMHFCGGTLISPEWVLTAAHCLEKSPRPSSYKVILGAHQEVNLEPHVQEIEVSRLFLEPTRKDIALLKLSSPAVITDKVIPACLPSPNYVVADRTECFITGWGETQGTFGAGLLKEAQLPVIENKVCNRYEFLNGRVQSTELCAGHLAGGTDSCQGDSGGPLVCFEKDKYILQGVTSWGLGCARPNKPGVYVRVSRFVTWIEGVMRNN

[1] = target: Tissue-type plasminogen activator (Homo sapiens, UniProt P00750); assay: Inhibition of tPA (unknown origin) incubated for 30 mins measured for 7 mins by morrison plot analysis
Sequence of Tissue-type plasminogen activator (P00750 whole entry): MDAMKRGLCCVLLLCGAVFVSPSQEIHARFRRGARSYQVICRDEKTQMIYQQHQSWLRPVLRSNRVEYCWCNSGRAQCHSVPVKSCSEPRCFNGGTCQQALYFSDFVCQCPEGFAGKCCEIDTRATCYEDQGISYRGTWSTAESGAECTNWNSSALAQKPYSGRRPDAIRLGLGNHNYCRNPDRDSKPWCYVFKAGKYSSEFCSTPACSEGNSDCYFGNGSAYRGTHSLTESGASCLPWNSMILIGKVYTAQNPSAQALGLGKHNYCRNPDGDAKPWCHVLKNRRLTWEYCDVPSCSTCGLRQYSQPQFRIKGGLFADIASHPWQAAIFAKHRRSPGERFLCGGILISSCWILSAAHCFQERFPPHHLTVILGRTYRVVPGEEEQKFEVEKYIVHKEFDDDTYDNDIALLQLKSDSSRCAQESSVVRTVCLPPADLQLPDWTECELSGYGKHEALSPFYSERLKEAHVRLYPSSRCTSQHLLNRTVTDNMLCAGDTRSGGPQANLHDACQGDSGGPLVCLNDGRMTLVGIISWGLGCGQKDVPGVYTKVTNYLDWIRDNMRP

Plasma kallikrein = Plasma kallikrein (Homo sapiens, UniProt P03952); assay: Inhibition of human plasma kallikrein using Ac-RM(O2)YRpNA as substrate incubated for 30 mins measured for 7 mins by morrison plot analysis
Sequence of Plasma kallikrein (P03952 20-390 limits assumed): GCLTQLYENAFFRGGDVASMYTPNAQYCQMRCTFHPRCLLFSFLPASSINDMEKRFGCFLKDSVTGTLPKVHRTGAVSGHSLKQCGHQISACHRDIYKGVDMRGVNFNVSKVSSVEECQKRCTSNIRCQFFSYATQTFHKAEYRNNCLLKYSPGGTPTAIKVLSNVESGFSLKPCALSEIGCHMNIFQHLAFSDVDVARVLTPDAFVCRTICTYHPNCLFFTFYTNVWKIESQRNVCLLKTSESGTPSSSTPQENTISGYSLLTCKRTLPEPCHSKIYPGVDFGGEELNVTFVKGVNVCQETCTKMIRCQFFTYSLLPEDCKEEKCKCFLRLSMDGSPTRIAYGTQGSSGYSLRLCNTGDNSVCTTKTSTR
Sequence of Plasma kallikrein (P03952 391-638 limits assumed): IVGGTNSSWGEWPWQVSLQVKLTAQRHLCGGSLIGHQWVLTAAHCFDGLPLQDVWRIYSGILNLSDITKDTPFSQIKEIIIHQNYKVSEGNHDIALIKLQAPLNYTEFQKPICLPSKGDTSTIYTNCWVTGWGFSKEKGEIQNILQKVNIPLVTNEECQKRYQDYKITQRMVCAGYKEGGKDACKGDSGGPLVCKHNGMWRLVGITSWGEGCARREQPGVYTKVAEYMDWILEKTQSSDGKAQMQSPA

Trypsin = Trypsin (Homo sapiens, UniProt P07477+P07478+P35030); assay: Inhibition of trypsin (unknown origin) using Bz-FVRpNA as substrate incubated for 30 mins measured for 7 mins by morrison plot analysis; type: protein assay
Coagulation factor XI = Coagulation factor XI (Homo sapiens, UniProt P03951); assay: Inhibition of factor 11a (unknown origin) using Bz-FVRpNA as substrate incubated for 30 mins measured for 7 mins by morrison plot analysis
Sequence of Coagulation factor XI (P03951 19-387 limits assumed): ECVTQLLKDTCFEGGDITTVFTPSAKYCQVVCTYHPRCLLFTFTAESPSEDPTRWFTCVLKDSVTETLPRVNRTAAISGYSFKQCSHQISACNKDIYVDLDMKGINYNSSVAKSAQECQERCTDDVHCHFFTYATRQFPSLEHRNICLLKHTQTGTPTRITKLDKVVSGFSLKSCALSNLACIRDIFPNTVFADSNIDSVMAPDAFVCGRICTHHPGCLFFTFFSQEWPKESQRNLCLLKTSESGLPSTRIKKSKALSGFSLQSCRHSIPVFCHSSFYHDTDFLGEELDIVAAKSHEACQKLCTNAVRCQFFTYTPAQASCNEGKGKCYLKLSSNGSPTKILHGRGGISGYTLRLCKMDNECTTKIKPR
Sequence of Coagulation factor XI (P03951 388-625 limits assumed): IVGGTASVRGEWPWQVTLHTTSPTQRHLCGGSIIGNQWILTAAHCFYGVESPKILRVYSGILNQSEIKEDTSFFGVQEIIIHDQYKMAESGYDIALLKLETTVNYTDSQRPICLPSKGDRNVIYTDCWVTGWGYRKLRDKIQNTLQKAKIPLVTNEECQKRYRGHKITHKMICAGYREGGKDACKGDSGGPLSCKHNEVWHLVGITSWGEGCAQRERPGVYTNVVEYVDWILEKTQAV

Coagulation factor IX = Coagulation factor IX (Homo sapiens, UniProt P00740); assay: Inhibition of factor 9a (unknown origin) using Ac-QGRpNA as substrate incubated for 30 mins measured for 7 mins by morrison plot analysis
Sequence of Coagulation factor IX (P00740 47-191 limits assumed): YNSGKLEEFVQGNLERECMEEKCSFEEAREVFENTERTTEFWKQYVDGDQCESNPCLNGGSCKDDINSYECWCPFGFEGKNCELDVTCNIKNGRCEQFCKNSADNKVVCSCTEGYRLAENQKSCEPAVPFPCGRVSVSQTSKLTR
Sequence of Coagulation factor IX (P00740 227-461 limits assumed): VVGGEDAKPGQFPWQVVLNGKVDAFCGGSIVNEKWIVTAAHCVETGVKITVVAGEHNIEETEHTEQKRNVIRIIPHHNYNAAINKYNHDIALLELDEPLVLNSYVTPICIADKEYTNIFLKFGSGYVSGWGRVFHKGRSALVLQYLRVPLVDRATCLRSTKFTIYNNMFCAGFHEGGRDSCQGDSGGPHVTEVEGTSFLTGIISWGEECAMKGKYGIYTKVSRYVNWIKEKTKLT

[2] = target: Urokinase-type plasminogen activator (Homo sapiens, UniProt P00749); assay: Inhibition of uPA (unknown origin) incubated for 30 mins measured for 7 mins by morrison plot analysis
Prothrombin = Prothrombin (Homo sapiens, UniProt P00734); assay: Inhibition of thrombin (unknown origin) using Ac-ATPRpNA as substrate incubated for 30 mins measured for 7 mins by morrison plot analysis

Ratio Ki (Homo sapiens) | Ki (Coagulation factor X) [µM] | Ki (Coagulation factor XII) [µM] | Ki (Plasminogen) [µM] | Ki [1] [µM] | Ki (Plasma kallikrein) [µM] | Ki (Trypsin) [µM] | Ki (Coagulation factor XI) [µM] | Ki (Coagulation factor IX) [µM] | Ki [2] [µM] | Ki (Prothrombin) [µM] | Compound
3 | 0.57 | 0.18 |  |  |  |  |  |  |  |  | CC(=O)N[C@@H](CCC(N)=O)C(=O)N[C@@H](CCCNC(=N)N)C(=O)N[C@@H](Cc1ccccc1)C(=O)N[C@H](C=O)CCCNC(=N)N (Ac-QRFR-aldehyde)
 |  | 0.49 | 4.54 | > 50 | > 50 | 6.24 | > 100 | > 50 |  |  | CC[C@H](C)[C@@H]1NC(=O)[C@@H]2CSSC[C@H](NC(=O)[C@H](CCC(N)=O)NC(=O)CNC(=O)[C@@H](N)CCCCN)C(=O)N[C@@H](Cc3ccccc3)C(=O)N[C@@H](CCCNC(=N)N)C(=O)N[C@@H]([C@@H](C)CC)C(=O)N[C@@H](Cc3c[nH]c4ccccc34)C(=O)N[C@@H](CCCCN)C(=O)N[C@@H](CCCCN)C(=O)N[C@H]3CSSC[C@H](NC1=O)C(=O)N[C@@H](CCCNC(=N)N)C(=O)NCC(=O)N[C@@H](CC(N)=O)C(=O)NCC(=O)N[C@@H](Cc1ccc(O)cc1)C(=O)N[C@H](C(=O)NCC(=O)N[C@@H](CO)C(=O)NCC(=O)N[C@@H](CO)C(=O)N[C@@H](CC(=O)O)C(=O)O)CSSC[C@H](NC(=O)[C@H](CC(=O)O)NC(=O)[C@H](CO)NC(=O)[C@H](CC(=O)O)NC(=O)[C@H](CCCNC(=N)N)NC(=O)[C@H](CCCNC(=N)N)NC3=O)C(=O)N1CCC[C@H]1C(=O)NCC(=O)N[C@@H](C)C(=O)N2
 | > 10 |  |  |  |  |  |  |  | > 10 | > 10 | CC[C@H](C)[C@@H]1NC(=O)[C@H](CCCCN)NC(=O)[C@@H]2CCCN2C(=O)[C@H](NC(=O)[C@@H](NC(=O)CNC(=O)CN)C(C)C)CSSC[C@H]2NC(=O)[C@H](C)NC(=O)CNC(=O)[C@@H]3CCCN3C(=O)[C@@H]3CSSC[C@H](C(=O)NCC(=O)N[C@@H](CO)C(=O)NCC(=O)N[C@@H](CO)C(=O)N[C@@H](CC(=O)O)C(=O)O)NC(=O)[C@H](Cc4ccc(O)cc4)NC(=O)CNC(=O)[C@H](CC(N)=O)NC(=O)CNC(=O)[C@H](CCCNC(=N)N)NC(=O)[C@H](CSSC[C@H](NC(=O)[C@H](CCCCN)NC(=O)[C@H](CCCCN)NC(=O)[C@H](CC(C)C)NC1=O)C(=O)N[C@@H](CCCNC(=N)N)C(=O)N[C@@H](CCCNC(=N)N)C(=O)N[C@@H](CC(=O)O)C(=O)N[C@@H](CO)C(=O)N[C@@H](CC(=O)O)C(=O)N3)NC(=O)[C@H]([C@@H](C)CC)NC2=O
 |  | 0.75 | 0.028 | > 10 | > 10 | 0.00016 | > 10 | > 10 |  |  | CC[C@H](C)[C@@H]1NC(=O)[C@@H]2CSSC[C@H](NC(=O)[C@@H](NC(=O)CNC(=O)CN)C(C)C)C(=O)N3CCC[C@H]3C(=O)N[C@@H](CCCCN)C(=O)N[C@@H]([C@@H](C)CC)C(=O)N[C@@H](CC(C)C)C(=O)N[C@@H](CCCCN)C(=O)N[C@@H](CCCCN)C(=O)N[C@H]3CSSC[C@H](NC1=O)C(=O)N[C@@H](CCCNC(=N)N)C(=O)NCC(=O)N[C@@H](CC(N)=O)C(=O)NCC(=O)N[C@@H](Cc1ccc(O)cc1)C(=O)N[C@H](C(=O)NCC(=O)N[C@@H](CO)C(=O)NCC(=O)N[C@@H](CO)C(=O)N[C@@H](CC(=O)O)C(=O)O)CSSC[C@H](NC(=O)[C@H](CC(=O)O)NC(=O)[C@H](CO)NC(=O)[C@H](CC(=O)O)NC(=O)[C@H](CCCNC(=N)N)NC(=O)[C@H](CCCNC(=N)N)NC3=O)C(=O)N1CCC[C@H]1C(=O)NCC(=O)N[C@@H](C)C(=O)N2
 |  | 0.51 | 1.5 | > 10 | > 10 | 2.24 | > 10 | > 10 |  |  | CC[C@H](C)[C@@H]1NC(=O)[C@@H]2CSSC[C@H](NC(=O)[C@H](CCC(N)=O)NC(=O)CNC(=O)CN)C(=O)N[C@@H](Cc3ccccc3)C(=O)N[C@@H](CCCNC(=N)N)C(=O)N[C@@H]([C@@H](C)CC)C(=O)N[C@@H](Cc3c[nH]c4ccccc34)C(=O)N[C@@H](CCCCN)C(=O)N[C@@H](CCCCN)C(=O)N[C@H]3CSSC[C@H](NC1=O)C(=O)N[C@@H](CCCNC(=N)N)C(=O)NCC(=O)N[C@@H](CC(N)=O)C(=O)NCC(=O)N[C@@H](Cc1ccc(O)cc1)C(=O)N[C@H](C(=O)NCC(=O)N[C@@H](CO)C(=O)NCC(=O)N[C@@H](CO)C(=O)N[C@@H](CC(=O)O)C(=O)O)CSSC[C@H](NC(=O)[C@H](CC(=O)O)NC(=O)[C@H](CO)NC(=O)[C@H](CC(=O)O)NC(=O)[C@H](CCCNC(=N)N)NC(=O)[C@H](CCCNC(=N)N)NC3=O)C(=O)N1CCC[C@H]1C(=O)NCC(=O)N[C@@H](C)C(=O)N2
 |  | 2.16 | > 10 | > 10 | > 10 | > 10 | > 10 | > 10 |  |  | CC[C@H](C)[C@@H]1NC(=O)[C@@H]2CSSC[C@H](NC(=O)[C@H](CCC(N)=O)NC(=O)CNC(=O)CN)C(=O)N[C@@H](CO)C(=O)N[C@@H](CCCNC(=N)N)C(=O)N[C@@H]([C@@H](C)CC)C(=O)N[C@@H](CC(C)C)C(=O)N[C@@H](CCCCN)C(=O)N[C@@H](CCCCN)C(=O)N[C@H]3CSSC[C@H](NC1=O)C(=O)N[C@@H](CCCNC(=N)N)C(=O)NCC(=O)N[C@@H](CC(N)=O)C(=O)NCC(=O)N[C@@H](Cc1ccc(O)cc1)C(=O)N[C@H](C(=O)NCC(=O)N[C@@H](CO)C(=O)NCC(=O)N[C@@H](CO)C(=O)N[C@@H](CC(=O)O)C(=O)O)CSSC[C@H](NC(=O)[C@H](CC(=O)O)NC(=O)[C@H](CO)NC(=O)[C@H](CC(=O)O)NC(=O)[C@H](CCCNC(=N)N)NC(=O)[C@H](CCCNC(=N)N)NC3=O)C(=O)N1CCC[C@H]1C(=O)NCC(=O)N[C@@H](C)C(=O)N2
 |  | 0.11 | 0.27 | > 10 | > 10 | 0.0069 | > 10 | > 10 |  |  | CC[C@H](C)[C@@H]1NC(=O)[C@@H]2CSSC[C@H](NC(=O)[C@H](CCC(N)=O)NC(=O)CNC(=O)CN)C(=O)N[C@@H](Cc3ccccc3)C(=O)N[C@@H](CCCNC(=N)N)C(=O)N[C@@H]([C@@H](C)CC)C(=O)N[C@@H](CC(C)C)C(=O)N[C@@H](CCCCN)C(=O)N[C@@H](CCCCN)C(=O)N[C@H]3CSSC[C@H](NC1=O)C(=O)N[C@@H](CCCNC(=N)N)C(=O)NCC(=O)N[C@@H](CC(N)=O)C(=O)NCC(=O)N[C@@H](Cc1ccc(O)cc1)C(=O)N[C@H](C(=O)NCC(=O)N[C@@H](CO)C(=O)NCC(=O)N[C@@H](CO)C(=O)N[C@@H](CC(=O)O)C(=O)O)CSSC[C@H](NC(=O)[C@H](CC(=O)O)NC(=O)[C@H](CO)NC(=O)[C@H](CC(=O)O)NC(=O)[C@H](CCCNC(=N)N)NC(=O)[C@H](CCCNC(=N)N)NC3=O)C(=O)N1CCC[C@H]1C(=O)NCC(=O)N[C@@H](C)C(=O)N2
 | 96 |  |  |  |  |  |  |  | > 10 | > 10 | CC[C@H](C)[C@@H]1NC(=O)[C@H](CCCNC(=N)N)NC(=O)[C@H](CO)NC(=O)[C@H](NC(=O)[C@H](CCC(N)=O)NC(=O)CNC(=O)CN)CSSC[C@H]2NC(=O)[C@H](C)NC(=O)CNC(=O)[C@@H]3CCCN3C(=O)[C@@H]3CSSC[C@H](C(=O)NCC(=O)N[C@@H](CO)C(=O)NCC(=O)N[C@@H](CO)C(=O)N[C@@H](CC(=O)O)C(=O)O)NC(=O)[C@H](Cc4ccc(O)cc4)NC(=O)CNC(=O)[C@H](CC(N)=O)NC(=O)CNC(=O)[C@H](CCCNC(=N)N)NC(=O)[C@H](CSSC[C@H](NC(=O)[C@H](CCCCN)NC(=O)[C@H](CCCCN)NC(=O)[C@H](CC(C)C)NC1=O)C(=O)N[C@@H](CCCNC(=N)N)C(=O)N[C@@H](CCCNC(=N)N)C(=O)N[C@@H](CC(=O)O)C(=O)N[C@@H](CO)C(=O)N[C@@H](CC(=O)O)C(=O)N3)NC(=O)[C@H]([C@@H](C)CC)NC2=O
 | > 100 |  |  |  |  |  |  |  | > 10 | > 10 | CC[C@H](C)[C@@H]1NC(=O)[C@H](CCCNC(=N)N)NC(=O)[C@H](Cc2ccccc2)NC(=O)[C@H](NC(=O)[C@H](CCC(N)=O)NC(=O)CNC(=O)CN)CSSC[C@H]2NC(=O)[C@H](C)NC(=O)CNC(=O)[C@@H]3CCCN3C(=O)[C@@H]3CSSC[C@H](C(=O)NCC(=O)N[C@@H](CO)C(=O)NCC(=O)N[C@@H](CO)C(=O)N[C@@H](CC(=O)O)C(=O)O)NC(=O)[C@H](Cc4ccc(O)cc4)NC(=O)CNC(=O)[C@H](CC(N)=O)NC(=O)CNC(=O)[C@H](CCCNC(=N)N)NC(=O)[C@H](CSSC[C@H](NC(=O)[C@H](CCCCN)NC(=O)[C@H](CCCCN)NC(=O)[C@H](Cc4c[nH]c5ccccc45)NC1=O)C(=O)N[C@@H](CCCNC(=N)N)C(=O)N[C@@H](CCCNC(=N)N)C(=O)N[C@@H](CC(=O)O)C(=O)N[C@@H](CO)C(=O)N[C@@H](CC(=O)O)C(=O)N3)NC(=O)[C@H]([C@@H](C)CC)NC2=O
